# How the values were obtained:
# [1] = test system: human red cells; experiment: Hemagglutination (HA) assay with reagent-treated erythrocytes and B19 empty capsids; assay type: cell-based; settings: for Change in HA titer (log2): erythrocytes incubated with agent at 37° C.; for Effect of red cell treatment on binding of virus to the erythrocytes: human red cells treated with agent
# Text: (§1) The B19 parvovirus receptor was identified utilizing a hemagglutination (HA) assay as described in Brown and Cohen (1992). Briefly, the ability of B19 to hemagglutinate human red cells was utilized to evaluate the ability of certain compounds to inhibit agglutination in the assay. Cellular components from red cell membranes were fractionated and their reactivity evaluated in the HA assay. Lipid extraction and purification of glycolipid fractions followed by evaluation in the HA assay identified the glycosphingolipid, globoside, as the cellular receptor for B19. Further, biochemical characterization and HA evaluation identified the polysaccharide GalNAc(β,3-3)Gal(α1-4)Gal(β,1-4)Glc as the specific binding domain for B19. […] Antibodies specific for globoside were also utilized in the assay to block infectivity to verify that globoside was the receptor.
# In order to characterize the physical nature of the B19 receptor, human red cells were treated with a variety of agents and the change in hemagglutination (HA) titer measured (ICE. Brown et al. (1992)) (Table 1).
# Table 1. Washed erythrocytes (0.5% v/v) were incubated at 37° C.
# with the reagents, washed twice in saline and resuspended at 0.5%. The
# cells were used in a standard hemagglutination assay using B19 empty
# capsids produced in insect cells (Brown and Cohen (1992)) the end point
# was 50% HA (1 HA50). In the table, therefore, an increasing the HA
# titer (log2) by a factor of one reflects a doubling of the measured
# [2] = test system: B19 empty capsids; experiment: Hemagglutination inhibition assay (HAI); assay type: binding, parvovirus B19; settings: for HAI titer: Purified glycosphingolipid, 1 mg/ml in saline, 4-8 HA50 units of virus capsid
# Text: as §1
# To identify the B19 cellular receptor, the ability of B19 to agglutinate red cells and B19 infectivity assays were used as measures of viral binding. It had been previously shown that B19 parvovirus empty capsids (S. Kajigaya et al. (1991)) agglutinate human red cells Brown and Cohen (1992)), and we tested the ability of membrane extracts from different cell types to block B19 binding in the hemagglutination assay (HA). Membrane extracts were prepared using 10 mM CHAPS (3-[(3cholamidopropyl)-dimethylammonio]-1-propanesulfonate) to solubilize proteins and lipids.
# Table 2. Human erythrocyte ghosts (J. T. Dodge, et al (1963)) were treate
# with 10 mM CHAPS, the solubilized extract incubated with agarose
# immobilized enzymes overnight at 37° C. and the supernatant tested
# in a hemagglutination inhibition assay (HAI). Purified glycosphingolipids
# (Sigma or BioCarb Chemicals) were dissolved in saline and tested by HAI
# using 4-8 HA50 units of virus capsid. (In the table, CTH is ceramide
# trihexoside and the HAI titer is the dilution required to reduce the HA t
# Table 3. Hemagglutination inhibition (HAI) titers red cell lipid
# fractionated on different columns. Lipid was extracted from red cell
# ghosts (9,12) and fractionated on either a silica gel or
# DEAEcellulose-acetate column (13). Organic solvents were removed by
# evaporation and salts removed by dialysis against water and
# lyophilization. The residual pellets were resuspended in saline and teste
# in the hemagglutination assay.
# [3] = test system: B19 virus; experiment: Erythroid progenitor assay (CFU-E in methylcellulose) for B19 infection; assay type: cell-based, parvovirus B19; settings: for Blocking of B19 cytotoxicity to CFU-E: B19 virus preincubated with globoceramide two hours, then bone marrow mononuclear cells two hours, CFU-E counted seven days later
# Experimental: To establish the biological relevance of binding of virus to P antigen, globoceramides were tested for their ability to block vital infection of permissive cells, using the erythroid progenitor assay (P. P. Mortimer et al. (1983)). Parvovirus B19 is highly toxic to the production of erythroid colonies from late erythroid progenitors (CFU-E) in methylcellulose culture, and this system was used as an assay for B19 infection. In the study, binding of B19 antigen to P antigen was shown by competition of infection using globoside or monoclonal antibody to P antigen. First, B19 virus was preincubated with different globoceramides, e.g., lactosyl, triosyl, and Forssman (Sigma or BioCarb Chemicals) and with different globoside concentrations for two hours, and then mixed with bone marrow mononuclear cells for a further two hours. […] Second, mouse monoclonal antibodies to P-antigen (A. E. yon dem Borne et al. (1986)) or P1 or p^k (BioCarb Chemicals) were diluted 1:100 and incubated with bone marrow mononuclear cells for two hours. Purified B19 virus as above was added for a further two hours. The cell mixtures were plated in methylcellulose (P. Mortimer et al. (1983)) and CFU-E counted seven days later. […] There was no protection with similar antibodies against P1 or p^k.
# [4] = test system: B19 empty capsids; experiment: Binding of viral capsids to glycosphingolipids by thin layer chromatography; set-up: species or system parvovirus B19; settings: 1 ug of purified glycosphingolipid on silica plate
# Experimental: Red cells from individuals with different blood group P system phenotypes were tested for their ability to agglutinate with parvovirus B19. Only cells containing P antigen hemagglutinated: P1 phenotype HA titer was 10,000; P2 phenotype HA titer was 5,000; P1^k and p phenotype were <200. […] Lipids were extracted from 0.2 mls packed red cells (H. Rose et al. (1965)) of patients with different P blood group phenotypes, dried and resuspended in 50 ul chloroform:methanol 1:1.20 ul of extract or 1 ug of each purified glycosphingolipid (Calbiochem) were applied to a silica plate (Merck) and chromatography performed with chloroform:methanol:water 65:25:4. Non-specific binding was blocked with 3% bovine albumin in phosphate buffered saline (16 hours) before the plates were sequentially incubated with B19 empty capsids, a human polyclonal anti-B19 serum, goat anti-human antibody conjugated with horse radish peroxidase, and developed with diaminobenzidene enhanced with cobalt chloride. The capsids bound to the globoside in P1 and P2 cells, and to purified globoside and Forssman antigen. B19 capsids and mouse monoclonal antibody to globoside (A. E. yon dem Borne et al. (1986)) bound to the same band on Western blotting of red cell extract, the putative "globoprotein" (Y. Tonegawa et al. (1977)).
molecule,measurement,setting,value
O[C@H](CS)[C@H](O)CS (racemic) [Dithiothreitol],Change in HA titer (log2),"[1]; time 1 hr, final conc. 4 mM",0 log2
OCCS [2-Mercaptoethanol],Change in HA titer (log2),"[1]; time 1 hr, final conc. 5 mM",0 log2
O=C(O)CN(CCN(CC(=O)O)CC(=O)O)CC(=O)O [EDTA],Change in HA titer (log2),"[1]; time 1 hr, final conc. 5 mM",0 log2
C=O [Formaldehyde],Change in HA titer (log2),"[1]; time 1 hr, final conc. 0.2%",0 log2
"[Na+].[O-][I+3]([O-])([O-])[O-] [NaIO4, sodium periodate]",decrease in HA titer,[1]; High concentrations (10 mM),> 4 log2
same,Change in HA titer (log2),"[1]; time 15 min, final conc. 10 mM",< -4 log2
same,Change in HA titer (log2),"[1]; time 20 hr, final conc. 5 uM",-1 log2
same,Effect of red cell treatment on binding of virus to the erythrocytes,[1],markedly reduced binding
Lactosyl ceramide,HAI titer,[2],< 10
same,Blocking of B19 cytotoxicity to CFU-E,[3],no effect
Trypsin,Change in HA titer (log2),"[1]; time 1 hr, final conc. 0.2%",+4 log2
same,Effect of red cell treatment on binding of virus to the erythrocytes,[1],increased binding
"globotetraosylceramide [Globoside, P]",Inhibition of hemagglutination by B19,[2],inhibitory activity
same,HAI titer,[2],25600
same,Binding of B19 capsids on thin layer chromatography plate,[4],bound
same,Blocking of B19 cytotoxicity to CFU-E,[3],completely blocked
same,Relationship of concentration to ability to block infectivity of mononuclear cells with B19 virus,[3]; different globoside concentrations,positive linear relationship
"globotriaosylceramide [CTH, P^k]",HAI titer,[2],< 10
same,Blocking of B19 cytotoxicity to CFU-E,[3],no effect

# Source: patent US5449608A, “Parvovirus B19 receptor and parvovirus B19 detection” (The United States of America as represented by the …, priority 1993, dated 1995)
